In patent US9447028B2, “Therapeutic aryl-amido-aryl compounds and their use” (King's College London, priority 2009, dated 2016):

Key:
[1] = test system: cortical neurons; experiment: Survival of cortical neurons in the presence of 10 μM Aβ42; assay type: cell-based, mouse; conditions: for % Surviving Neurons: 10 μM Aβ42, 3 days; for Neuronal survival in the presence of Aβ42 (in words): 10 μM Aβ42, 0.01-1 μM agonist, compared to control cultures treated only with Aβ42
Description: (§1) Neuronal cultures were prepared from embryonic E19 mouse embryos. Fetal brain cortices were dissected and freed from meninges. […] Cortical cells (1×10^5) were plated onto poly-L-lysine (10 μg/mL) coated glass coverslips in 24-well tissue culture plates. They were cultured in Neurobasal medium containing B27 supplement, 2 mM glutamine, 20 μg/mL penicillin stepromycin, and 0.25% glucose. They were maintained for 7 days before been treated. For each treatment, 3 coverslips were used and the experiment was repeated 3 times.
(§2) After 3 days of culture, media was removed and Hoechst 33342 (10 μM) and propidium iodide (10 μM) in PBS was added to the wells for 15 minutes. Only neurons positive for Hoechst 33342 but negative for propidium iodide were counted as surviving neurons. In addition, cortical cultures were treated with agonist alone (0.1 μM) and assayed for chAT, APP, and ADAM10. The antibodies used were α chAT (1:200, Chemicon™), α APP (1:100, Chemicon™) and α ADAM10 (1:200, Chemicon™). Secondary antibody used was anti-rabbit Cy3 or Cy5 conjugated (Jackson™, used at 1:1000). The nuclear marker DAPI (1 μg/mL) was used to stain all cells.
Cortical cultures were treated after 7 days with 10 μM Aβ42 and supplemented with 0.01-1 μM of agonist. After 3 days, the number of surviving cells was determined. […] As atRA is a weak pan-agonist of all the RARs, it was decided to identify the specific receptor involved in this process using RAR specific agonists.

[2] = test system: amyloid precursor protein (APP); experiment: APP expression in cultured cortical neurons; assay type: cell-based, mouse; design: dose or concentration left out as unconfirmed; conditions: Agonist; analysed 3 days later (Table 4)
Description: as §1
as §2, with “In addition, cortical cultures were treated with agonist alone (0.1 μM) and assayed for chAT, APP, and ADAM10.” left out, “cells. […]” for “cells.”

[3] = test system: disintegrin-metalloproteinases 10 (ADAM10); experiment: ADAM10 expression in cultured cortical neurons; assay type: cell-based, mouse; design: dose or concentration left out as unconfirmed; conditions: Agonist; analysed 3 days later (Table 5, introduced as ADAM10 data)
Description: as §1
as §2, with “In addition, cortical cultures were treated with agonist alone (0.1 μM) and assayed for chAT, APP, and ADAM10.” left out, “cells. […]” for “cells.”

[4] = test system: Aβ40; experiment: Aβ40 level in cortex of Tg2576 mice after oral agonist (sandwich ELISA); assay type: in vivo; conditions: chow with 1 mg/kg agonist for 3 months, six months of age; control = 100
Description: (§3) Twenty seven 3 month old Tg2576 mice (Taconic™) were split into 3 groups of 9. One group was fed normal chow, the other groups were fed with 1 mg/Kg RARα agonist, either AM580 or BMS194753. Animals were analysed at 6 and 9 months of age.
(§4) Animals were perfused with PBS. The brain was dissected and one hemisegment was fixed in 4% PFA overnight, 20% sucrose for 3 days, embedded in OCT compound and stored frozen. The cortex was removed form the other hemisegment and the protein extracted.
(§5) To measure Aβ40 and Aβ42 levels, a sandwich ELISA assay kit (Biosource™) was used according to the manufactures instructions. A 1:5000 of the guanidine-soluble extracts were made with TBS containing 5% BSA and 1×protease inhibitor (Calbiochem™) and centrifuged at 16000×g for 20 minutes at 4° C. Samples were diluted 1:10000 in sample diluent provided by the manufacturer.
(§6) These are Tg2576 mice, which over-express the Swedish mutation of APP. These mice overproduce Aβ40 and Aβ42. Three month old mice were fed for 3 months with normal chow or chow supplemented with 1 mg/kg of agonist. At six months of age, there is a dramatic decrease in both Aβ40 and Aβ42 levels in the mice fed with the RARα agonist, as compared to the normal fed mice.

[5] = test system: Aβ42; experiment: Aβ42 level in cortex of Tg2576 mice after oral agonist (sandwich ELISA); assay type: in vivo; conditions: chow with 1 mg/kg agonist for 3 months, six months of age; control = 100
Description: as §3, §4, §5, §6

[6] = test system: choline acetyltransferase (chAT); experiment: chAT expression in cultured cortical neurons; assay type: cell-based, mouse; design: dose or concentration left out as unconfirmed; conditions: Agonist; analysed 3 days later
Description: as §1
as §2, with “In addition, cortical cultures were treated with agonist alone (0.1 μM) and assayed for chAT, APP, and ADAM10.” left out, “cells. […]” for “cells.”

SMILES	% Surviving Neurons ([1]; 0.01 μM agonist) [%]	% Surviving Neurons ([1]; 0.1 μM agonist) [%]	% Surviving Neurons ([1]; 1.0 μM agonist) [%]	Neuronal survival in the presence of Aβ42 (in words) [1]	Number of APP Neurons [2]	Number of APP Neurons [3]	% of Aβ40 [4] [%]	% of Aβ42 [5] [%]	Number of chAT Neurons [6]
CC1(C)CCC(C)(C)c2cc(C(=O)Nc3ccc(C(=O)O)cc3)ccc21 [AM 580]	52 ± 7	70 ± 6	99 ± 9	notably better	11 ± 2	19 ± 3	4 ± 1	8 ± 1	
CC1(C)C(=O)C(C)(C)c2cc(C(=O)Nc3ccc(C(=O)O)cc3)ccc21 [BMS 194753]	57 ± 7	69 ± 3	88 ± 4	notably better	10 ± 2	20 ± 2	3 ± 0.5	7 ± 1	37 ± 3
